± gives the standard deviation of the averaged measurements.
What was measured:
Test in all cases: level (log10 ratio to DMSO vehicle control); higher = higher biomarker level / cell amount than vehicle control
Methotrexate = compound: CN(Cc1cnc2nc(N)nc(N)c2n1)c1ccc(C(=O)N[C@@H](CCC(=O)O)C(=O)O)cc1 [Methotrexate]; details: in DMSO
Experimental: (§1)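 BioMAP Diversity Plus panel of 12 human primary cell co-culture systems (3C, 4H, LPS, SAg, BT, BF4T, BE3C, CASM3C, HDF3CGF, KF3CT, MyoF, Mphg). Compounds were added 1 h before stimulation and left for 24 h (MyoF 48 h; BT 72 h for soluble read-outs or 6 d for IgG). Biomarkers were read by ELISA, cytotoxicity by SRB, PBMC viability and proliferation by Alamar Blue. Each well value was divided by the mean of 8 DMSO control wells on the same plate and log10 transformed; duplicate blinded samples were tested at 4 concentrations.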

[1] = compound: O=P(O)(O)CCC(F)(F)C(F)(F)C(F)(F)C(F)(F)C(F)(F)C(F)(F)F [2-(Perfluorohexyl)ethylphosphonic acid]; details: in DMSO
Experimental: as §1

[2] = compound: OCC(F)(F)C(F)(F)C(F)(F)C(F)(F)C(F)(F)C(F)(F)C(F)(F)C(F)(F)CO [1H,1H,10H,10H-Perfluorodecane-1,10-diol]; details: in DMSO
Experimental: as §1

[3] = compound: Cc1ccc(S(=O)(=O)OCC(F)(F)C(F)(F)C(F)(F)C(F)(F)C(F)(F)C(F)F)cc1 [1H,1H,7H-Perfluoroheptyl 4-methylbenzenesulfonate]; details: in DMSO
Experimental: as §1

[4] = compound: FC(F)(F)C(F)(F)C(F)(F)C(F)(F)CCI [1H,1H,2H,2H-Perfluorohexyl iodide]; details: in DMSO
Experimental: as §1

[5] = compound: C=CC(=O)OCC(F)(F)C(F)(F)C(F)(F)C(F)(F)COC(=O)C=C [1H,1H,6H,6H-Perfluorohexane-1,6-diol diacrylate]; details: 6700 nM; in DMSO
Experimental: as §1

[6] = compound: O=C(O)C(F)(F)C(F)(F)C(F)(F)C(F)(F)C(F)(F)C(F)(F)C(F)(F)F [Ammonium perfluorooctanoate]; details: in DMSO
Experimental: as §1

| Test System | level (log10) (Methotrexate; 1500 nM) | level (log10) (Methotrexate; 4400 nM) | level (log10) (Methotrexate; 13000 nM) | level (log10) (Methotrexate; 40000 nM) | level (log10) ([1]; 6700 nM) | level (log10) ([1]; 20000 nM) | level (log10) ([1]; 60000 nM) | level (log10) ([2]; 6700 nM) | level (log10) ([2]; 20000 nM) | level (log10) ([2]; 60000 nM) | level (log10) ([3]; 6700 nM) | level (log10) ([3]; 20000 nM) | level (log10) ([3]; 60000 nM) | level (log10) ([4]; 6700 nM) | level (log10) ([4]; 20000 nM) | level (log10) ([4]; 60000 nM) | level (log10) [5] | level (log10) ([6]; 6700 nM) | level (log10) ([6]; 20000 nM) | level (log10) ([6]; 60000 nM) |
| --- | --- | --- | --- | --- | --- | --- | --- | --- | --- | --- | --- | --- | --- | --- | --- | --- | --- | --- | --- | --- |
| BF4T:IL-1alpha | 0.0145 ± 0.00071 | -0.037 ± 0.0042 | -0.012 ± 0.031 | 0.0045 ± 0.0021 | 0.0005 ± 0.015 | -0.014 ± 0.013 | 0.002 ± 0.042 | 0.0005 ± 0.0021 | -0.025 ± 0.023 | -0.035 | -0.008 ± 0.0085 | 0.022 ± 0.018 | 0.04 ± 0.034 | 0.001 ± 0.0071 | 0.0085 ± 0.0092 | 0.019 ± 0.024 | -0.0155 ± 0.025 | -0.02 ± 0.014 | -0.0235 ± 0.0035 | -0.0365 ± 0.015 |
| BF4T:Keratin 8/18 | 0.005 ± 0.038 | -0.0385 ± 0.005 | -0.006 ± 0.054 | 0.0155 ± 0.028 | -0.0045 ± 0.015 | -0.0065 ± 0.012 | 0.0105 ± 0.022 | 0.005 ± 0.028 | 0.027 ± 0.018 | -0.024 | 0.0085 ± 0.039 | 0.005 ± 0.028 | -0.0285 ± 0.028 | 0.0015 ± 0.022 | -0.0045 ± 0.005 | 0.003 ± 0.033 | 0.0065 ± 0.029 | 0.009 ± 0.028 | 0.013 ± 0.0057 | 0.017 ± 0.014 |
| BF4T:MMP-1 | 0.0195 ± 0.015 | 0.0005 ± 0.016 | -0.012 ± 0.03 | 0.0015 ± 0.011 | -0.0045 ± 0.0092 | -0.004 | 0.0035 ± 0.026 | -0.003 ± 0.011 | -0.0505 ± 0.011 | -0.007 | 0.0105 ± 0.046 | -0.018 ± 0.038 | 0.013 ± 0.037 | 0.007 ± 0.024 | 0.0105 ± 0.029 | 0.015 ± 0.051 | 0.0365 ± 0.018 | -0.0025 ± 0.016 | -0.004 ± 0.014 | 0.0105 ± 0.012 |
| BF4T:MMP-3 | 0.0045 ± 0.025 | -0.0285 ± 0.018 | -0.012 ± 0.031 | 0.015 ± 0.024 | -0.0205 ± 0.005 | -0.0125 ± 0.022 | -0.002 ± 0.023 | 0.0015 ± 0.021 | -0.0375 ± 0.026 | -0.105 | -0.006 ± 0.0014 | -0.031 ± 0.0014 | -0.018 ± 0.0085 | 0.018 ± 0.04 | 0.015 ± 0.047 | 0.049 ± 0.078 | 0.085 ± 0.038 | 0.003 ± 0.0014 | 0.0165 ± 0.011 | 0.084 ± 0.02 |
| BF4T:MMP-9 | 0.0265 ± 0.012 | -0.0075 ± 0.029 | 0.014 ± 0.0099 | 0.016 | -0.0155 ± 0.00071 | -0.0015 ± 0.0078 | 0.018 ± 0.035 | -0.0185 ± 0.015 | -0.063 ± 0.0028 | -0.135 | 0.0045 ± 0.012 | -0.008 ± 0.011 | -0.0435 ± 0.023 | 0.0085 ± 0.022 | 0.01 ± 0.047 | 0.02 ± 0.052 | 0.0005 ± 0.00071 | 0.017 ± 0.023 | 0.028 ± 0.0057 | 0.0375 ± 0.025 |
| BF4T:PAI-I | -0.002 ± 0.014 | -0.0075 ± 0.0078 | -0.0065 ± 0.0078 | -0.002 ± 0.0071 | -0.0075 ± 0.0092 | -0.0115 ± 0.0035 | -0.016 ± 0.038 | -0.021 ± 0.021 | -0.111 ± 0.0021 | -0.156 | -0.0075 ± 0.025 | -0.0295 ± 0.011 | -0.0315 ± 0.0035 | 0.0075 ± 0.0078 | 0.008 ± 0.018 | 0.01 ± 0.038 | -0.015 ± 0.0014 | 0.011 ± 0.0085 | 0.0055 ± 0.0021 | 0.0185 ± 0.016 |
| BF4T:SRB | -0.003 ± 0.017 | -0.0105 ± 0.0078 | -0.007 ± 0.0071 | 0.0045 ± 0.023 | -0.007 ± 0.0042 | -0.011 ± 0.0014 | -0.0055 ± 0.016 | -0.005 ± 0.0028 | -0.0315 ± 0.0035 | -0.097 | -0.003 ± 0.0042 | -0.008 ± 0.0028 | -0.015 ± 0.0099 | -0.009 ± 0.0028 | -0.0055 ± 0.005 | -0.0035 ± 0.0078 | -0.01 ± 0.0014 | -0.0085 ± 0.005 | -0.002 ± 0.0042 | 0.0005 ± 0.016 |
| BF4T:tPA | 0.018 ± 0.0071 | -0.0155 ± 0.011 | 0.005 ± 0.014 | 0.0155 ± 0.018 | -0.059 ± 0.0014 | -0.067 ± 0.0057 | -0.0615 ± 0.064 | -0.061 ± 0.016 | -0.164 ± 0.013 | -0.246 | -0.0305 ± 0.025 | -0.0255 ± 0.022 | -0.0555 ± 0.025 | -0.0025 ± 0.0092 | 0.005 ± 0.0042 | 0.0475 ± 0.053 | -0.0425 ± 0.0021 | -0.0185 ± 0.0064 | -0.041 ± 0.018 | -0.0565 ± 0.0021 |
| BF4T:uPA | 0.013 ± 0.0085 | 0.0115 ± 0.0078 | 0.005 ± 0.03 | 0.009 ± 0.028 | -0.0445 ± 0.037 | -0.0475 ± 0.028 | -0.0465 ± 0.013 | -0.014 ± 0.017 | -0.029 ± 0.0042 | -0.06 | -0.0185 ± 0.00071 | -0.01 ± 0.0042 | -0.0165 ± 0.0064 | -0.0205 ± 0.0021 | -0.0145 ± 0.013 | 0.0115 ± 0.035 | -0.02 ± 0.035 | 0.014 ± 0.0028 | 0.0175 ± 0.0021 | 0.042 ± 0.013 |
| BT:B cell Proliferation | -0.0915 ± 0.016 | -0.1 ± 0.0085 | -0.099 ± 0.0071 | -0.052 ± 0.037 | 0.031 ± 0.0071 | 0.0135 ± 0.00071 | 0.051 ± 0.021 | 0.0155 ± 0.00071 | 0.0195 ± 0.0078 | -0.316 | -0.0165 ± 0.012 | 0.011 ± 0.0028 | -0.034 ± 0.0057 | -0.0105 ± 0.00071 | -0.0085 ± 0.016 | -0.0005 ± 0.032 | -0.188 ± 0.0057 | 0.0065 ± 0.047 | 0.0165 ± 0.012 | 0.0515 ± 0.026 |
| BT:PBMC Cytotoxicity | -0.037 ± 0.0071 | -0.0455 ± 0.0021 | -0.0635 ± 0.0078 | -0.049 ± 0.035 | 0.0025 ± 0.053 | 0.0325 ± 0.021 | 0.07 ± 0.047 | 0.0065 ± 0.026 | -0.012 ± 0.0085 | -0.246 | -0.017 ± 0.0057 | 0.008 ± 0.0014 | -0.017 | -0.024 ± 0.0014 | -0.042 ± 0.0099 | -0.0045 ± 0.029 | -0.186 ± 0.0042 | -0.0115 ± 0.047 | -0.009 ± 0.033 | 0.0565 ± 0.015 |
| BT:Secreted IgG | -1.302 ± 0.011 | -1.31 ± 0.079 | -1.33 | -1.26 | 0.0125 ± 0.0021 | 0.002 ± 0.0099 | -0.046 ± 0.047 | -0.0135 ± 0.005 | -0.0415 ± 0.011 | -0.82 | 0.006 ± 0.018 | -0.019 ± 0.035 | -0.22 ± 0.18 | -0.012 ± 0.016 | -0.016 ± 0.0071 | -0.002 ± 0.014 | -0.489 ± 0.25 | 0.032 ± 0.017 | 0.0155 ± 0.037 | -0.019 ± 0.033 |
| BT:sIL-2 | 0.0155 ± 0.016 | -0.0845 ± 0.11 | 0.0085 ± 0.035 | -0.075 ± 0.035 | 0.076 ± 0.013 | 0.023 ± 0.0071 | 0.0355 ± 0.11 | 0.002 ± 0.035 | 0.0135 ± 0.005 | -0.482 | 0.0615 ± 0.0021 | 0.0305 ± 0.042 | -0.0025 ± 0.14 | 0.0565 ± 0.029 | -0.0065 ± 0.0021 | -0.056 ± 0.057 | -0.461 ± 0.18 | -0.046 ± 0.0057 | -0.0075 ± 0.074 | -0.006 ± 0.1 |
| BT:sIL-6 | 0.0125 ± 0.013 | -0.034 ± 0.1 | -0.0095 ± 0.059 | -0.2 ± 0.033 | 0.0645 ± 0.013 | -0.007 ± 0.0042 | 0.0015 ± 0.025 | -0.0075 ± 0.011 | -0.0405 ± 0.032 | -0.673 | 0.0155 ± 0.011 | -0.0245 ± 0.069 | -0.0975 ± 0.021 | 0.0605 ± 0.036 | 0.0075 ± 0.0064 | -0.0525 ± 0.00071 | -0.546 ± 0.044 | -0.0485 ± 0.0021 | -0.0025 ± 0.037 | -0.034 ± 0.085 |

Reference: the supplement of paper PMC10331698
